According to patent US9599627B2, “NMR methods for monitoring blood clot formation” (T2 Biosystems, Inc., priority 2011, dated 2017):

Key:
[1] = system: P2Y12 pathway in platelets; assay: T2MR platelet inhibition, ADP activation formulation in citrated whole blood; format: cell-based, human; settings: ex vivo spiked MeSAMP, healthy donors
Excerpt: We have developed a standard formulation for ADP activation of platelets in citrated whole blood which uses the addition of heparin to control thrombin activation, thereby minimizing variability in platelet activation via thrombin. Clotting in such a system is initiated with a combination of calcium (to overcome citrate), and reptilase/factor XIIIa (to replace thrombin). The complete one-pot activation mixture which activates platelets via ADP, and is therefore useful in probing the state of the P2Y12 ADP receptor, contains heparin, reptilase, factor XIIIa, calcium, and ADP.
In this experiment inhibition of the P2Y12 pathway in platelets by using the ex vivo spiked MeSAMP (2-thiomethyl AMP, an irreversible ADP P2Y12 receptor inhibitor) as a mimic for Plavix inhibition of platelet activity was tested.
A standard ADP activation formulation including heparin, reptilase, factor XIIIa, calcium, and ADP was used to activate platelet in citrated whole blood obtained from healthy donors. Samples were tested in the presence and absence of the platelet activation inhibitor MeSAMP. Again we observed that the clot signature was dependent on platelet activity.

anti-Xa = assay: PT clotting time of spiked samples (T2MR and Stago); format: cell-based, human; settings: spiked at 10 ng/mL-1000 ng/mL
Description: Clotting times were measured by […] by first establishing a time zero T2 value (i.e., by taking the first point or some sort of average or linear fit to the first 5-10 data points) of the T2 time curve, and second identifying the time point (i.e., the clotting time or PT time) in the T2 time curve when the T2 value had changed by a predetermined amount (e.g. 5% or 10%) indicative of clotting in the sample. From the observed PT clotting time the INR was calculated using the methods described in Jan et al., Clin. Chem. 35:840 (1989). […] 18 normal samples and 24 abnormal samples were tested against a reference range established by 20 normal samples. Abnormal samples with prolonged PT times were obtained by spiking increasing levels of the anti-Xa inhibitor Rivaroxiban (10 ng/mL-1000 ng/mL). Correlation with TEG clotting time was obtained across >40 normal patient samples with non-optimized R2 correlation of >0.8. (see FIG. 14B). PT time correlations with Stago for plasma (see FIG. 14D) and with Hemochron for whole blood (see FIG. 14C) were also found.

platelet activity = assay: T2MR platelet inhibition, heparin blood activated by AA+RF; format: cell-based; settings: 600 μM aspirin ex vivo, AA+RF activation
Description: In this experiment platelet inhibition was monitored by the addition of 600 μM aspirin ex vivo to heparin blood prior to activation by AA+RF (samples were tested with and without aspirin). […] These studies confirmed that the clot signature was dependent on platelet activity.

Compound: CSc1nc(N)c2ncn([C@@H]3O[C@H](COP(=O)(O)O)[C@@H](O)[C@H]3O)c2n1 [MeSAMP, 2-thiomethyl AMP]
- clot-associated T2 signal [1]: dramatically diminished or absent

Compound: O=C(NC[C@H]1CN(c2ccc(N3CCOCC3=O)cc2)C(=O)O1)c1ccc(Cl)s1 [Rivaroxiban]
- PT times (anti-Xa): prolonged

Compound: CC(=O)Oc1ccccc1C(=O)O [aspirin]
- clot-associated T2 signal (platelet activity): dramatically diminished or absent
